Test results taken from patent US20180298405A1, “METHODS AND COMPOSITIONS TO INCREASE HUMAN SOMATIC CELL NUCLEAR TRANSFER (SCNT) EFFICIENCY BY REMOVING HISTONE H3-LYSINE TRIMETHYLATION, AND DERIVATION OF HUMAN NT-ESC” (CHILDREN'S MEDICAL CENTER CORPORATION, priority 2015, published 2018).

Tested on: reprogramming resistant regions (RRRs) / ZGA genes
Assay: RNA-seq of late 8-cell human SCNT embryos with or without KDM4A mRNA injection (ZGA of RRRs, KDM4A-responsive genes)
Assay type: cell-based
Details: 8-cell embryos
Description: A sliding window (size 20 kb, step size 10 kb) was used to assess the genome-wide expression level of 4-cell and 8-cell human embryos. For each window, the expression level was quantified with normalized RPM (reads per millions of uniquely mapped reads). […] These activated regions were classed into three groups based on their expression differences in human SCNT and IVF 8-cell embryos.
The SCNT embryos used for ZGA analysis were generated using oocytes donated by a single healthy person (#64) and dermal fibroblast cells from an AMD patient (DFB-8). SCNT and IVF embryos were cultured up to late 8-cell stage, when the compaction of blastomeres is initiated, then they were treated briefly with acid Tyrode solution to remove zona pellucida. To prepare for the 8-cell SCNT embryo, oocytes from a single oocyte donor, and skin fibroblast cells from a single somatic nuclear donor were used. All the procedures are the same as described in the “Human SCNT procedure and KMD4A mRNA injection” section. Only embryos that reached the late 8-cell stage synchronically 74 hours post activation were collected and used for this experiment.
For preparation of the control IVF embryos, several donated early 8-cell stage IVF embryos were thawed and cultured for 5-7 hours to allow them to reach late 8-cell stage before being processed. After removal of the zona pellucida, the denuded embryos were washed 3 times in PBS, loaded into RNAse and DNAse free PCR tubes, spin downed, and snap frozen in liquid nitrogen. Then, they were kept at −80° C. until use. As controls, dermal fibroblast cells of somatic nuclear donors were also prepared. Those fibroblast cells were cultured in a 25 cm^2 flask in DMEM 10% FBS, and approximately 10,000 cells/donor were collected, snap frozen, and stored at −80° C. until use.
Five 8-cell embryos for each group were directly lysed and used for cDNA synthesis using SMART-Seq v4 Ultra Low Input RNA Kit (Clontech). For MEF donor, 10 ng total RNA was used for cDNA synthesis using SMART-Seq v4 Ultra Low Input RNA Kit. After amplification, the cDNA samples were fragmented using Covaris sonicator M220 to an average size of 150 bp (Covaris). Sequencing libraries were made with the fragmented DNA using NEBNext Ultra DNA Library Prep Kit for Illumina according to manufacturer's instruction (New England Biolabs) with different barcodes. For each RNA-seq analysis of hESCs, 1 μg total RNA was used for mRNA purification. Barcoded RNA-seq libraries were generated using NEBNext Ultra Directional RNA Library Prep Kit for Illumina (New England Biolabs). Single end 50 bp sequencing was performed on a HiSeq 2500 sequencer (Illumina). Sequencing reads were mapped to the human genome (hg19) with Tophat2. All programs were performed with default settings (unless otherwise specified). At least 22 million uniquely mapped reads were obtained for each sequencing library, and subsequently assembled into transcripts guided by the reference annotation (Refseq gene models) with Cufflinks v2.0.2. Expression level of each gene was quantified with normalized FPKM (fragments per kilobase of exon per million mapped fragments). Statistical analyses were performed with R (available at: “www.r-project.org/”). Independent 2 group Wilcoxon rank sum tests were used to compare distributions using the wilcox.test function in R. Pearson's r coefficient was calculated using the cor function with default parameters. The hierarchical clustering analysis of the global gene expression pattern in different samples was carried out using heatmap.2 function (gplots package) in R.

## KDM4A mRNA: in vitro transcribed mRNA of full length human KDM4A/JHDM3A cDNA, an H3K9me3 demethylase (SEQ ID NO: 1)
  NDUFAF2 Fold Change (log2) [KDM4A SCNT/Control SCNT]: 1.16 log2
  NMNAT1 Fold Change (log2) [KDM4A SCNT/Control SCNT]: 1.28 log2
  NOC4L Fold Change (log2) [KDM4A SCNT/Control SCNT]: 1.15 log2
  NOP58 Fold Change (log2) [KDM4A SCNT/Control SCNT]: 1.4 log2
  NUDT9 Fold Change (log2) [KDM4A SCNT/Control SCNT]: 1.82 log2
  PAGE5 Fold Change (log2) [KDM4A SCNT/Control SCNT]: 1.24 log2
  PDCD11 Fold Change (log2) [KDM4A SCNT/Control SCNT]: 1.11 log2
  PDE4DIP Fold Change (log2) [KDM4A SCNT/Control SCNT]: 1.79 log2
  PHOSPHO1 Fold Change (log2) [KDM4A SCNT/Control SCNT]: 1.46 log2
  PIK3R4 Fold Change (log2) [KDM4A SCNT/Control SCNT]: 1.58 log2
  PLBD1 Fold Change (log2) [KDM4A SCNT/Control SCNT]: 1.69 log2
  PLD2 Fold Change (log2) [KDM4A SCNT/Control SCNT]: 1.2 log2
  PLVAP Fold Change (log2) [KDM4A SCNT/Control SCNT]: 1.63 log2
  POLR3K Fold Change (log2) [KDM4A SCNT/Control SCNT]: 1.34 log2
  POTEM Fold Change (log2) [KDM4A SCNT/Control SCNT]: 1.56 log2
  PPM1N Fold Change (log2) [KDM4A SCNT/Control SCNT]: 1.68 log2
  PPP2CB Fold Change (log2) [KDM4A SCNT/Control SCNT]: 2.17 log2
  PRAMEF3 Fold Change (log2) [KDM4A SCNT/Control SCNT]: 2.4 log2
  PRAMEF4 Fold Change (log2) [KDM4A SCNT/Control SCNT]: 1.02 log2
  PRAMEF6 Fold Change (log2) [KDM4A SCNT/Control SCNT]: 1.08 log2
  PRAMEF10 Fold Change (log2) [KDM4A SCNT/Control SCNT]: 1.05 log2
  PRAMEF11 Fold Change (log2) [KDM4A SCNT/Control SCNT]: 1.31 log2
  PRAMEF17 Fold Change (log2) [KDM4A SCNT/Control SCNT]: 1.44 log2
  PRPF39 Fold Change (log2) [KDM4A SCNT/Control SCNT]: 1.4 log2
  PTPN22 Fold Change (log2) [KDM4A SCNT/Control SCNT]: 2.57 log2
  RAB9A Fold Change (log2) [KDM4A SCNT/Control SCNT]: 1.39 log2
  RASA2 Fold Change (log2) [KDM4A SCNT/Control SCNT]: 1.36 log2
  RFK Fold Change (log2) [KDM4A SCNT/Control SCNT]: 1.29 log2
  RNU11 Fold Change (log2) [KDM4A SCNT/Control SCNT]: 5.27 log2
  RP2 Fold Change (log2) [KDM4A SCNT/Control SCNT]: 1.82 log2
  RPF2 Fold Change (log2) [KDM4A SCNT/Control SCNT]: 1.46 log2
  RPS6KB2 Fold Change (log2) [KDM4A SCNT/Control SCNT]: 1.81 log2
  SAMD8 Fold Change (log2) [KDM4A SCNT/Control SCNT]: 1.14 log2
  SCO1 Fold Change (log2) [KDM4A SCNT/Control SCNT]: 1.15 log2
  SEPX1 Fold Change (log2) [KDM4A SCNT/Control SCNT]: 1.36 log2
  SERTAD1 Fold Change (log2) [KDM4A SCNT/Control SCNT]: 1.12 log2
  SFTPD Fold Change (log2) [KDM4A SCNT/Control SCNT]: 2.45 log2
  SGCG Fold Change (log2) [KDM4A SCNT/Control SCNT]: 2.73 log2
  SGPP1 Fold Change (log2) [KDM4A SCNT/Control SCNT]: 1.41 log2
  SHFM1 Fold Change (log2) [KDM4A SCNT/Control SCNT]: 1.73 log2
  SIAH1 Fold Change (log2) [KDM4A SCNT/Control SCNT]: 1.7 log2
  SNAPC1 Fold Change (log2) [KDM4A SCNT/Control SCNT]: 1.71 log2
  SNAR-C3 Fold Change (log2) [KDM4A SCNT/Control SCNT]: 1.85 log2
  SNAR-E Fold Change (log2) [KDM4A SCNT/Control SCNT]: 1.72 log2
  SNHG9 Fold Change (log2) [KDM4A SCNT/Control SCNT]: 1.3 log2
  SNHG12 Fold Change (log2) [KDM4A SCNT/Control SCNT]: 1.42 log2
  SPINK7 Fold Change (log2) [KDM4A SCNT/Control SCNT]: 5.38 log2
  SRA1 Fold Change (log2) [KDM4A SCNT/Control SCNT]: 1.23 log2
  SSX3 Fold Change (log2) [KDM4A SCNT/Control SCNT]: 1.1 log2
  STAG3L2 Fold Change (log2) [KDM4A SCNT/Control SCNT]: 1.35 log2
  STAG3L4 Fold Change (log2) [KDM4A SCNT/Control SCNT]: 1.17 log2
  STAP2 Fold Change (log2) [KDM4A SCNT/Control SCNT]: 1.25 log2
  SUZ12P Fold Change (log2) [KDM4A SCNT/Control SCNT]: 1.68 log2
  TAC1 Fold Change (log2) [KDM4A SCNT/Control SCNT]: 1.38 log2
  TCEANC2 Fold Change (log2) [KDM4A SCNT/Control SCNT]: 1.13 log2
  TCN2 Fold Change (log2) [KDM4A SCNT/Control SCNT]: 1.4 log2
  TEN1 Fold Change (log2) [KDM4A SCNT/Control SCNT]: 1.66 log2
  THOC5 Fold Change (log2) [KDM4A SCNT/Control SCNT]: 1.46 log2
  TIMM10 Fold Change (log2) [KDM4A SCNT/Control SCNT]: 1.41 log2
  TMEM41B Fold Change (log2) [KDM4A SCNT/Control SCNT]: 1.14 log2
  TMEM92 Fold Change (log2) [KDM4A SCNT/Control SCNT]: 1.42 log2
  TMEM159 Fold Change (log2) [KDM4A SCNT/Control SCNT]: 1.17 log2
  TRIM39-RPP21 Fold Change (log2) [KDM4A SCNT/Control SCNT]: 1.09 log2
  TRIML2 Fold Change (log2) [KDM4A SCNT/Control SCNT]: 1.55 log2
  TSEN34 Fold Change (log2) [KDM4A SCNT/Control SCNT]: 1.28 log2
  TTC27 Fold Change (log2) [KDM4A SCNT/Control SCNT]: 1.72 log2
  TTC28-AS1 Fold Change (log2) [KDM4A SCNT/Control SCNT]: 1.74 log2
  UBTFL1 Fold Change (log2) [KDM4A SCNT/Control SCNT]: 1.8 log2
  UTP3 Fold Change (log2) [KDM4A SCNT/Control SCNT]: 1.08 log2
  UTP23 Fold Change (log2) [KDM4A SCNT/Control SCNT]: 1.35 log2
  UTS2 Fold Change (log2) [KDM4A SCNT/Control SCNT]: 1.28 log2
  VAMP1 Fold Change (log2) [KDM4A SCNT/Control SCNT]: 2.23 log2
  VCX2 Fold Change (log2) [KDM4A SCNT/Control SCNT]: 1.77 log2
  VCX Fold Change (log2) [KDM4A SCNT/Control SCNT]: 1.72 log2
  VPS54 Fold Change (log2) [KDM4A SCNT/Control SCNT]: 2.28 log2
  WDR77 Fold Change (log2) [KDM4A SCNT/Control SCNT]: 1.18 log2
  XAGE5 Fold Change (log2) [KDM4A SCNT/Control SCNT]: 1.07 log2
  ZCCHC10 Fold Change (log2) [KDM4A SCNT/Control SCNT]: 1.22 log2
  ZFYVE19 Fold Change (log2) [KDM4A SCNT/Control SCNT]: 1.49 log2
  ZNF92 Fold Change (log2) [KDM4A SCNT/Control SCNT]: 1.03 log2
  ZNF100 Fold Change (log2) [KDM4A SCNT/Control SCNT]: 2.53 log2
  ZNF174 Fold Change (log2) [KDM4A SCNT/Control SCNT]: 1.24 log2
  ZNF208 Fold Change (log2) [KDM4A SCNT/Control SCNT]: 1.57 log2
  ZNF254 Fold Change (log2) [KDM4A SCNT/Control SCNT]: 1.37 log2
  ZNF273 Fold Change (log2) [KDM4A SCNT/Control SCNT]: 1.11 log2
  ZNF280A Fold Change (log2) [KDM4A SCNT/Control SCNT]: 1.34 log2
  ZNF326 Fold Change (log2) [KDM4A SCNT/Control SCNT]: 1.37 log2
  ZNF345 Fold Change (log2) [KDM4A SCNT/Control SCNT]: 1.46 log2
  ZNF486 Fold Change (log2) [KDM4A SCNT/Control SCNT]: 1.74 log2
  ZNF487P Fold Change (log2) [KDM4A SCNT/Control SCNT]: 1.2 log2
  ZNF625-ZNF20 Fold Change (log2) [KDM4A SCNT/Control SCNT]: 2.32 log2
  ZNF625 Fold Change (log2) [KDM4A SCNT/Control SCNT]: 1.87 log2
  ZNF669 Fold Change (log2) [KDM4A SCNT/Control SCNT]: 1.08 log2
  ZNF675 Fold Change (log2) [KDM4A SCNT/Control SCNT]: 1.87 log2
  ZNF676 Fold Change (log2) [KDM4A SCNT/Control SCNT]: 1.29 log2
  ZNF679 Fold Change (log2) [KDM4A SCNT/Control SCNT]: 2.13 log2
  ZNF680 Fold Change (log2) [KDM4A SCNT/Control SCNT]: 1.18 log2
  ZNF684 Fold Change (log2) [KDM4A SCNT/Control SCNT]: 1.53 log2
  ZNF700 Fold Change (log2) [KDM4A SCNT/Control SCNT]: 1.49 log2
  ZNF724P Fold Change (log2) [KDM4A SCNT/Control SCNT]: 1.04 log2
  ZNF729 Fold Change (log2) [KDM4A SCNT/Control SCNT]: 1.75 log2
  ZNF735 Fold Change (log2) [KDM4A SCNT/Control SCNT]: 1.24 log2
  ZNF789 Fold Change (log2) [KDM4A SCNT/Control SCNT]: 1.28 log2
  ZNF791 Fold Change (log2) [KDM4A SCNT/Control SCNT]: 1.38 log2
